Consider ten compounds from patent US11053213B2, “Pharmaceutical compounds” (ALMAC DISCOVERY LIMITED, priority 2016, dated 2021).

Each structure is given as a SMILES string. pIC50: −log10 of the molar value.

The test concerns the target USP19 (Homo sapiens (Human), UniProt O94966). Briefly: USP19 activity assay (fluorescence polarisation, Ubiquitin-Lys-TAMRA substrate). The format is biochemical. The following applies: full-length USP19 2.5 nM, 30 min pre-incubation, Ub substrate 500 nM; average of at least two duplicate experiments. For orientation: In fluorescence polarisation assays a small probe gives low polarisation when free and higher when bound to something large.

Sequence of USP19 (O94966 whole entry): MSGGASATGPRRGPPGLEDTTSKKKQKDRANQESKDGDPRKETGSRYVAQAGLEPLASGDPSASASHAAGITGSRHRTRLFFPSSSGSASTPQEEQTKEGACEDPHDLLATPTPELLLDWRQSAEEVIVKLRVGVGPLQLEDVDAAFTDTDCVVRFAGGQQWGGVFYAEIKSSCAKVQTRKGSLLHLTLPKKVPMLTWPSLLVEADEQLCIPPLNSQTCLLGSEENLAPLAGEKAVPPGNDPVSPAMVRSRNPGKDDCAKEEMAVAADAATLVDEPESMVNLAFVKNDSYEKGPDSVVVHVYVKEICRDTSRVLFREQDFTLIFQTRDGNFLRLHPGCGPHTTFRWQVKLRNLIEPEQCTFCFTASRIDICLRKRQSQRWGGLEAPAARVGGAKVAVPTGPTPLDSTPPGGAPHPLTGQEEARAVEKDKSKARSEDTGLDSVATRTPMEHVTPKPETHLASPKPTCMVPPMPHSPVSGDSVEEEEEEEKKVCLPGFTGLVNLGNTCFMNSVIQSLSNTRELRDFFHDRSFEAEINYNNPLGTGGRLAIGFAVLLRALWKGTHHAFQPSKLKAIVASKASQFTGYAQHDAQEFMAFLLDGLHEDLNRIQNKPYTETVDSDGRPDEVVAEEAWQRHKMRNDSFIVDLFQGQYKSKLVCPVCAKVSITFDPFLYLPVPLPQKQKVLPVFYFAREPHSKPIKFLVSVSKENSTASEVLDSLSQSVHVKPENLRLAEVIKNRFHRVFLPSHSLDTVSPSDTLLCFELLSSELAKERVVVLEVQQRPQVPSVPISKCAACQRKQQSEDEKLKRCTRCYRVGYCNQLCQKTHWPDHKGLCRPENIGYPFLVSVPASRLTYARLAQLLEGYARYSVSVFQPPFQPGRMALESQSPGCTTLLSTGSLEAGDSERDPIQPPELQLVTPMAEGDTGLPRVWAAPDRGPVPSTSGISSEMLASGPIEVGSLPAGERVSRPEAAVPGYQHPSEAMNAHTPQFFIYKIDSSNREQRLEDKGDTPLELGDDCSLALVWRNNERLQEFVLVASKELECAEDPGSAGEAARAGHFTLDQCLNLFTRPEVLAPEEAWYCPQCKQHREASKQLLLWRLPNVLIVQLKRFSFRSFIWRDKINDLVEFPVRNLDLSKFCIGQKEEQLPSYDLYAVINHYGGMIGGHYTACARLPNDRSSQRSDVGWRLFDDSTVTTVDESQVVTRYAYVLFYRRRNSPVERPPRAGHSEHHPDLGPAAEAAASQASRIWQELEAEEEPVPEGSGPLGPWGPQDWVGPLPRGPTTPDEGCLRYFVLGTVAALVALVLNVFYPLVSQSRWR

Broadly, the pIC50 is the negative decadic logarithm of the IC50, by convention in mol/L. In the case of `CN(C)C(=O)c1cn(CC2(O)CCN(C(=O)C[C@@H](c3ccccc3)C(F)F)CC23CCCC3)c(=O)cc1-c1ccccc1` (stereo partly drawn) [Example 180, 1-((7-((S)-4,4-Difluoro-3-phenylbutanoyl)-10-hydroxy-7-azaspiro[4.5]decan-10-yl)methyl)-N,N-dimethyl-6-oxo-4-phenyl-1,6-dihydropyridine-3-carboxamide], the pIC50 is 4.30 to 5.30. In the case of `C[C@H](CC1CCC1)C(=O)N1CC[C@@](O)(Cn2cc(C(=O)N(C)C)c(C3CC3)cc2=O)C2(CCCC2)C1` [Example 230, 1-(((S)-7-((R)-3-Cyclobutyl-2-methylpropanoyl)-10-hydroxy-7-azaspiro[4.5]decan-10-yl)methyl)-4-cyclopropyl-N,N-dimethyl-6-oxo-1,6-dihydropyridine-3-carboxamide], the pIC50 was 5.30 to 6.30. `CN(C)C(=O)c1cn(C[C@]2(O)CCN(C(=O)[C@H](CCO)CC3CCCCC3)CC2(C)C)c(=O)cc1-c1ccccc1` [Example 164, 1-(((S)-1-((S)-2-(Cyclohexylmethyl)-4-hydroxybutanoyl)-4-hydroxy-3,3-dimethylpiperidin-4-yl)methyl)-N,N-dimethyl-6-oxo-4-phenyl-1,6-dihydropyridine-3-carboxamide]: the pIC50 was > 6.30. In the case of `C=C(C)c1cc(=O)n(CC2(O)CCN(C(=O)C[C@@H](C)c3ccccc3)CC2)cc1-c1ccccc1` [Example 12, (R)-1-((4-Hydroxy-1-(3-phenylbutanoyl)piperidin-4-yl)methyl)-5-phenyl-4-(prop-1-en-2-yl)pyridine-2(1H)-one], the pIC50 is 4.30 to 5.30. In the case of `C[C@H](CC1CCCCC1)C(=O)N1CCC(O)(Cn2cc(-c3ncco3)c(-c3ccccc3)cc2=O)C(C)(C)C1` (stereo partly drawn) [Example 136, 1-((1-((R)-3-Cyclohexyl-2-methylpropanoyl)-4-hydroxy-3,3-dimethylpiperidin-4-yl)methyl)-5-(oxazol-2-yl)-4-phenylpyridin-2(1H)-one], the pIC50 is 5.30 to 6.30.

For the compound `C[C@H](CC1CCCCC1)C(=O)N1CC[C@](O)(Cn2cc(C(=O)N3CCNCC3)c(-c3ccccc3)cc2=O)C(C)(C)C1` [Example 125, 1-(((R)-1-((R)-3-Cyclohexyl-2-methylpropanoyl)-4-hydroxy-3,3-dimethylpiperidin-4-yl)methyl)-4-phenyl-5-(piperazine-1-carbonyl)pyridin-2(1H)-one], the pIC50 was 4.30 to 5.30. Consider `C[C@H](CC(F)(F)F)C(=O)N1CC[C@@](O)(Cn2cc(C(=O)N3CCNCC3)c(-c3ccccc3)cc2=O)C2(CCCC2)C1` [Example 217, 1-(((S)-10-Hydroxy-7-((R)-4,4,4-trifluoro-2-methylbutanoyl)-7-azaspiro[4.5]decan-10-yl)methyl)-4-phenyl-5-(piperazine-1-carbonyl)pyridin-2(1H)-one], for which the pIC50 was > 6.30. For `C[C@H](CC1CCCCC1)C(=O)N1CCC(O)(Cn2cc(C(=O)N(C)C)c(N(C)C)cc2=O)C2(CCCC2)C1` (stereo partly drawn) [Example 145, 1-((7-((R)-3-Cyclohexyl-2-methylpropanoyl)-10-hydroxy-7-azaspiro[4.5]decan-10-yl)methyl)-4-(dimethylamino)-N,N-dimethyl-6-oxo-1,6-dihydropyridine-3-carboxamide], the negative logarithm of the IC50 (pIC50) was > 6.30. `CN(C)C(=O)c1cn(C[C@]2(O)CCN(C(=O)C(CC(F)(F)F)CC(F)(F)F)CC2(C)C)c(=O)cc1-c1ccccc1` [Example 207, (S)-1-((4-Hydroxy-3,3-dimethyl-1-(4,4,4-trifluoro-2-(2,2,2-trifluoroethyl)butanoyl)piperidin-4-yl)methyl)-N,N-dimethyl-6-oxo-4-phenyl-1,6-dihydropyridine-3-carboxamide]: the pIC50 was 4.30 to 5.30.

With `CC(CC1CCC1)C(=O)N1CCC(O)(Cn2cnc(-c3ccccc3F)cc2=O)CC1` (racemic) [Example 57, (R,S)-3-((1-(3-Cyclobutyl-2-methylpropanoyl)-4-hydroxypiperidin-4-yl)methyl)-6-(2-fluorophenyl)pyrimidin-4(3H)-one], the pIC50 is 4.30 to 5.30.
